Experimental data: US20200016136A1 (VIIV HEALTHCARE UK (NO. 5) LIMITED, priority 2017, published 2020)

system: NL-RLuc virus (recombinant NL4-3 HIV with Renilla Luciferase gene); test: Inhibition of HIV replication (NL-RLuc virus in MT-2 cells, luciferase readout); assay type: cell-based, Human immunodeficiency virus (HIV); conditions: MT2, 120 h
Summary of the method: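 EC50 derived via median effect equation from at least 2 experiments, using luciferase expression as virus-growth readout. Replication-competent NL-RLuc reporter virus (nef partly replaced by Renilla luciferase) infected MT-2 cells with serial compound dilutions; 5-day incubation in RPMI 1640 plus 10% FBS.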

SMILES	EC50 [nM]
CC1(C)CCN(c2c(-c3ccc4c(c3)CCN(c3ncnc5c3oc3ccccc35)C4)c(CNCC3CCOCC3)nc(Cl)c2[C@H](OC(C)(C)C)C(=O)O)CC1 [Example 111, (S)-2-(5-(2-(Benzofuro[3,2-d]pyrimidin-4-yl)-1,2,3,4-tetrahydroisoquinolin-6-yl)-2-chloro-4-(4,4-dimethylpiperidin-1-yl)-6-((((tetrahydro-2H-pyran-4-yl)methyl)amino)methyl)pyridin-3-yl)-2-(tert-butoxy)acetic Acid]	0.7
CN(Cc1nc(Cl)c([C@H](OC(C)(C)C)C(=O)O)c(N2CCC(C)(C)CC2)c1-c1ccc2c(c1)CCN(c1ncnc3c1oc1ccccc13)C2)CC1CCOCC1 [Example 112, (S)-2-(5-(2-(Benzofuro[3,2-d]pyrimidin-4-yl)-1,2,3,4-tetrahydroisoquinolin-6-yl)-2-chloro-4-(4,4-dimethylpiperidin-1-yl)-6-((methyl((tetrahydro-2H-pyran-4-yl)methyl)amino)methyl)pyridin-3-yl)-2-(tert-butoxy)acetic Acid]	0.3
Cc1cc(F)ccc1CN1CCc2cc(-c3cnc(Cl)c([C@H](OC(C)(C)C)C(=O)O)c3N3CCC(C)(C)CC3)ccc2C1 [Example 113, (S)-2-(tert-Butoxy)-2-(2-chloro-4-(4,4-dimethylpiperidin-1-yl)-5-(2-(4-fluoro-2-methylbenzyl)-1,2,3,4-tetrahydroisoquinolin-6-yl)pyridin-3-yl)acetic Acid]	3
CC1(C)CCN(Cc2nc(Cl)c([C@H](OC(C)(C)C)C(=O)O)c(N3CCC(C)(C)CC3)c2-c2ccc3c(c2)CCN(c2ncnc4c2oc2ncccc24)C3)CC1 [Example 114, (S)-2-(tert-Butoxy)-2-(2-chloro-4-(4,4-dimethylpiperidin-1-yl)-6-((4,4-dimethylpiperidin-1-yl)methyl)-5-(2-(pyrido[3′,2′:4,5]furo[3,2-d]pyrimidin-4-yl)-1,2,3,4-tetrahydroisoquinolin-6-yl)pyridin-3-yl)acetic Acid]	0.1
CC1(C)CCN(c2c(-c3ccc4c(c3)CCN(c3ncnc5c3oc3ncccc35)C4)c(CO)nc(Cl)c2[C@H](OC(C)(C)C)C(=O)O)CC1 [Example 115, (S)-2-(tert-Butoxy)-2-(2-chloro-4-(4,4-dimethylpiperidin-1-yl)-6-(hydroxymethyl)-5-(2-(pyrido[3′,2′:4,5]furo[3,2-d]pyrimidin-4-yl)-1,2,3,4-tetrahydroisoquinolin-6-yl)pyridin-3-yl)acetic Acid]	1
Cc1cccc(Cl)c1CN1CCc2cc(-c3c(C(=O)O)nc(C)c([C@H](OC(C)(C)C)C(=O)O)c3N3CCC(C)(C)CC3)ccc2C1 [Example 116, (S)-5-(tert-Butoxy(carboxy)methyl)-3-(2-(2-chloro-6-methylbenzyl)-1,2,3,4-tetrahydroisoquinolin-6-yl)-4-(4,4-dimethylpiperidin-1-yl)-6-methylpicolinic Acid]	4
Cc1cccc(Cl)c1CN1CCc2cc(-c3c(CO)ncc([C@H](OC(C)(C)C)C(=O)O)c3N3CCC(C)(C)CC3)ccc2C1 [Example 117, (S)-2-(tert-Butoxy)-2-(5-(2-(2-chloro-6-methylbenzyl)-1,2,3,4-tetrahydroisoquinolin-6-yl)-4-(4,4-dimethylpiperidin-1-yl)-6-(hydroxymethyl)pyridin-3-yl)acetic Acid]	1
Cc1cccc(Cl)c1CN1CCc2cc(-c3c(C(=O)N4CCC(C)(C)CC4)nc(C)c([C@H](OC(C)(C)C)C(=O)O)c3N3CCC(C)(C)CC3)ccc2C1 [Example 118, (S)-2-(tert-Butoxy)-2-(5-(2-(2-chloro-6-methylbenzyl)-1,2,3,4-tetrahydroisoquinolin-6-yl)-4-(4,4-dimethylpiperidin-1-yl)-6-(4,4-dimethylpiperidine-1-carbonyl)-2-methylpyridin-3-yl)acetic Acid]	1
Cc1nc(C)c([C@H](OC(C)(C)C)C(=O)O)c(N2CCC(C)(C)CC2)c1-c1ccc2c(c1)CCN(c1cc(N3CCOCC3)ncn1)C2 [Example 119, (S)-2-(tert-Butoxy)-2-(4-(4,4-dimethylpiperidin-1-yl)-2,6-dimethyl-5-(2-(6-morpholinopyrimidin-4-yl)-1,2,3,4-tetrahydroisoquinolin-6-yl)pyridin-3-yl)acetic Acid]	5
Cc1nc(C)c([C@H](OC(C)(C)C)C(=O)O)c(N2CCC(C)(C)CC2)c1-c1ccc2c(c1)CCN(c1cc(N3CCC(CO)CC3)ncn1)C2 [Example 120, (S)-2-(tert-Butoxy)-2-(4-(4,4-dimethylpiperidin-1-yl)-5-(2-(6-(4-(hydroxymethyl)piperidin-1-yl)pyrimidin-4-yl)-1,2,3,4-tetrahydroisoquinolin-6-yl)-2,6-dimethylpyridin-3-yl)acetic Acid]	14
Cc1nc(C)c([C@H](OC(C)(C)C)C(=O)O)c(N2CCC(C)(C)CC2)c1-c1ccc2c(c1)CCN(c1cc(N3CCC(CCO)CC3)ncn1)C2 [Example 121, (S)-2-(tert-Butoxy)-2-(4-(4,4-dimethylpiperidin-1-yl)-5-(2-(6-(4-(2-hydroxyethyl)piperidin-1-yl)pyrimidin-4-yl)-1,2,3,4-tetrahydroisoquinolin-6-yl)-2,6-dimethylpyridin-3-yl)acetic Acid]	9
Cc1nc(C)c([C@H](OC(C)(C)C)C(=O)O)c(N2CCC(C)(C)CC2)c1-c1ccc2c(c1)CCN(c1ncnc3c1oc1ccc(Cl)cc13)C2 [Example 122, (S)-2-(tert-Butoxy)-2-(5-(2-(8-chlorobenzofuro[3,2-d]pyrimidin-4-yl)-1,2,3,4-tetrahydroisoquinolin-6-yl)-4-(4,4-dimethylpiperidin-1-yl)-2,6-dimethylpyridin-3-yl)acetic Acid]	5
COc1ccccc1-c1cc(N2CCc3cc(-c4c(C)nc(C)c([C@H](OC(C)(C)C)C(=O)O)c4N4CCC(C)(C)CC4)ccc3C2)ncn1 [Example 123, (S)-2-(tert-Butoxy)-2-(4-(4,4-dimethylpiperidin-1-yl)-5-(2-(6-(2-methoxyphenyl)pyrimidin-4-yl)-1,2,3,4-tetrahydroisoquinolin-6-yl)-2,6-dimethylpyridin-3-yl)acetic Acid]	11
Cc1nc(C)c([C@H](OC(C)(C)C)C(=O)O)c(N2CCC(C)(C)CC2)c1-c1ccc2c(c1)CCN(c1cc(N3CCCCC3)ncn1)C2 [Example 124, (S)-2-(tert-Butoxy)-2-(4-(4,4-dimethylpiperidin-1-yl)-2,6-dimethyl-5-(2-(6-(piperidin-1-yl)pyrimidin-4-yl)-1,2,3,4-tetrahydroisoquinolin-6-yl)pyridin-3-yl)acetic Acid]	17
Cc1nc(C)c([C@H](OC(C)(C)C)C(=O)O)c(N2CCC(C)(C)CC2)c1-c1ccc2c(c1)CCN(c1cc(N3CCC(O)CC3)ncn1)C2 [Example 125, (S)-2-(tert-Butoxy)-2-(4-(4,4-dimethylpiperidin-1-yl)-5-(2-(6-(4-hydroxypiperidin-1-yl)pyrimidin-4-yl)-1,2,3,4-tetrahydroisoquinolin-6-yl)-2,6-dimethylpyridin-3-yl)acetic Acid]	23
CCOc1cc(N2CCc3cc(-c4c(C)nc(C)c([C@H](OC(C)(C)C)C(=O)O)c4N4CCC(C)(C)CC4)ccc3C2)ncn1 [Example 126, (S)-2-(tert-Butoxy)-2-(4-(4,4-dimethylpiperidin-1-yl)-5-(2-(6-ethoxypyrimidin-4-yl)-1,2,3,4-tetrahydroisoquinolin-6-yl)-2,6-dimethylpyridin-3-yl)acetic Acid]	5
Cc1nc(C)c([C@H](OC(C)(C)C)C(=O)O)c(N2CCC(C)(C)CC2)c1-c1ccc2c(c1)CCN(c1cc(C(=O)O)ncn1)C2 [Example 127, (S)-6-(6-(5-(tert-Butoxy(carboxy)methyl)-4-(4,4-dimethylpiperidin-1-yl)-2,6-dimethylpyridin-3-yl)-3,4-dihydroisoquinolin-2(1H)-yl)pyrimidine-4-carboxylic Acid]	1280
Cc1nc(N2CCc3cc(-c4c(C)nc(C)c([C@H](OC(C)(C)C)C(=O)O)c4N4CCC(C)(C)CC4)ccc3C2)c2oc3ccccc3c2n1 [Example 128, (S)-2-(tert-Butoxy)-2-(4-(4,4-dimethylpiperidin-1-yl)-2,6-dimethyl-5-(2-(2-methylbenzofuro[3,2-d]pyrimidin-4-yl)-1,2,3,4-tetrahydroisoquinolin-6-yl)pyridin-3-yl)acetic Acid]	2
Cc1nc(C)c([C@H](OC(C)(C)C)C(=O)O)c(N2CCC(C)(C)CC2)c1-c1ccc2c(c1)CCN(c1cc(N3CCN(C)CC3)ncn1)C2 [Example 129, (S)-2-(tert-Butoxy)-2-(4-(4,4-dimethylpiperidin-1-yl)-2,6-dimethyl-5-(2-(6-(4-methylpiperazin-1-yl)pyrimidin-4-yl)-1,2,3,4-tetrahydroisoquinolin-6-yl)pyridin-3-yl)acetic Acid]	12
Cc1nc(C)c([C@H](OC(C)(C)C)C(=O)O)c(N2CCC(C)(C)CC2)c1-c1ccc2c(c1)CCN(c1cc(N3C[C@@H](C)O[C@@H](C)C3)ncn1)C2 [Example 130, (S)-2-(tert-Butoxy)-2-(5-(2-(6-((2S,6R)-2,6-dimethylmorpholino)pyrimidin-4-yl)-1,2,3,4-tetrahydroisoquinolin-6-yl)-4-(4,4-dimethylpiperidin-1-yl)-2,6-dimethylpyridin-3-yl)acetic Acid]	5
Cc1nnc(-c2cc(N3CCc4cc(-c5c(C)nc(C)c([C@H](OC(C)(C)C)C(=O)O)c5N5CCC(C)(C)CC5)ccc4C3)ncn2)o1 [Example 131, (S)-2-(tert-Butoxy)-2-(4-(4,4-dimethylpiperidin-1-yl)-2,6-dimethyl-5-(2-(6-(5-methyl-1,3,4-oxadiazol-2-yl)pyrimidin-4-yl)-1,2,3,4-tetrahydroisoquinolin-6-yl)pyridin-3-yl)acetic Acid]	4
Cc1cn(-c2cc(N3CCc4cc(-c5c(C)nc(C)c([C@H](OC(C)(C)C)C(=O)O)c5N5CCC(C)(C)CC5)ccc4C3)ncn2)cn1 [Example 132, (S)-2-(tert-Butoxy)-2-(4-(4,4-dimethylpiperidin-1-yl)-2,6-dimethyl-5-(2-(6-(4-methyl-1H-imidazol-1-yl)pyrimidin-4-yl)-1,2,3,4-tetrahydroisoquinolin-6-yl)pyridin-3-yl)acetic Acid]	2
